Experimental data reported in patent US12642270B2, “Substituted thiophene carboxamides, thiophene carboxylic acids and derivatives thereof” (Bayer Aktiengesellschaft, priority 2019, dated 2026).
One block for each compound: values may come before it.

Assay: Log P by HPLC on reversed phase columns (EEC directive 79/831 Annex V.A8)
Assay type: physicochemical
How it was run: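 Reversed-phase HPLC per EEC 79/831 Annex V.A8, LC-UV with 10→95% acetonitrile linear gradient; eluent [a] 0.1% formic acid (acidic), [b] 0.001 M ammonium acetate (neutral), [c] 0.1% phosphoric acid (acidic). Calibrated with C3–C16 straight-chain alkan-2-ones, linear interpolation of retention times; multiple values joined by "+".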

[1] = LogP method [a], compounds of formula (I), Table 1.1
[2] = method [a]: LC-UV, acidic range, 0.1% formic acid in water and acetonitrile
[3] = method marker [a] given with each value, Table 1.1, compounds of formula (I)
[4] = method [a], compounds of formula (I), Table 1.1

SMILES: N#CCNC(=O)c1sc(Cl)c(Cl)c1I [1.0188]
LogP (method [a]): 2.72^[a]

SMILES: COC(=O)CC[C@H](NC(=O)c1sc(Br)c(Br)c1Cl)C(=O)OC [1.0498]
LogP [1]: 3.40^[a]

SMILES: CCOC(=O)C(CO)NC(=O)c1sc(Br)c(Br)c1C#N (stereo not shown) [1.0803]
LogP (method [a]): 2.29^[a]

SMILES: Cc1c(C(=O)NCC(=O)OC(C)(C)C)sc(C#N)c1Br [1.0981]
LogP [3]: 3.14^[a]

SMILES: CCOC(=O)CNC(=O)c1sc(Br)c(Br)c1Cl [1.0142]
LogP (method [a]): 3.30^[a]

SMILES: COC(=O)C(CCSC)NC(=O)c1sc(Br)c(Br)c1C#N (stereo not shown) [1.0778]
LogP (method marked [a]): 3.37^[a]

SMILES: Cc1c(C(=O)NCC(=O)O)sc(C#N)c1Br [1.0249]
LogP (method [a]): 1.61^[a]

SMILES: CCCCOC(=O)C1(NC(=O)c2sc(C#N)c(Br)c2C)CC1 [1.0969]
LogP [3]: 3.36^[a]

SMILES: COC(=O)C(Cc1ccccc1)NC(=O)C(CC(=O)O)NC(=O)c1sc(C#N)c(Br)c1C (stereo not shown) [I.0501]
LogP [2]: 2.70^[a]

SMILES: CCOC(=O)C(CCSC)NC(=O)c1sc(C#N)c(Cl)c1Cl (stereo not shown) [1.0813]
LogP (method [a]): 3.60^[a]

SMILES: COC(=O)c1sc(C#N)c(Cl)c1Br [II.096]
LogP [2]: 3.04^[a]

SMILES: COC(=O)C(C)(C)NC(=O)c1sc(Cl)c(Cl)c1C#N [1.0684]
LogP (method marked [a]): 2.73^[a]

SMILES: O=C(NC1(C(=O)OC2CCCCC2)CCC1)c1sc(Br)c(Br)c1F [1.0929]
LogP (method [a]): 5.28^[a]

SMILES: CCOC(=O)CNC(=O)c1sc(F)c(Br)c1Br [1.0697]
LogP (method marked [a]): 3.01^[a]

SMILES: O=C(O)c1sc(Br)c(Br)c1C(F)(F)F [II.004]
LogP [2]: 2.44^[a]

SMILES: O=C(NC(Cc1ccccc1)C(=O)O)c1sc(Br)c(Br)c1F (stereo not shown) [1.0226]
LogP (method [a]): 3.22^[a]

SMILES: COC(=O)C1(NC(=O)c2sc(C#N)c(Br)c2C)CCC1 [1.0680]
LogP (method marked [a]): 2.71^[a]

SMILES: COC(=O)c1cc(F)c(Br)s1 [II.049]
LogP [2]: 3.04^[a]

SMILES: COC(=O)C1(NC(=O)c2sc(C)c(Cl)c2Cl)CC1 [1.0897]
LogP (method [a]): 2.67^[a]

SMILES: COC(=O)C1(NC(=S)c2sc(C#N)c(Cl)c2C)CC1 [1.0290]
LogP (method marked [a]): 3.04^[a]

SMILES: CCOC(=O)CNC(=O)c1sc(C)c(Br)c1F [1.0001]
LogP [4]: 2.69^[a]

SMILES: CCOC(=O)C(CO)NC(=O)c1sc(C#N)c(Cl)c1Cl (stereo not shown) [1.0809]
LogP (method [a]): 2.33^[a]

SMILES: C[Si](C)(C)COC(=O)CNC(=O)c1sc(Br)c(Br)c1F [1.1027]
LogP [3]: 4.40^[a]

Next, values leading:

LogP (method marked [a]): 3.00^[a]
SMILES: COC(=O)C(NC(=O)c1sc(Cl)c(Cl)c1C(F)F)C(=O)OC [1.0748]

LogP (method marked [a]): 3.34^[a]
SMILES: CCOC(=O)C1(NC(=O)c2sc(C#N)c(Cl)c2Br)CCC1 [1.0683]

LogP [2]: 1.77^[a]
SMILES: O=C1CC(NC(=O)c2cc(Cl)c(Br)s2)CCN1 (stereo not shown) [I.0219]

LogP [1]: 3.33^[a]
SMILES: COC(=O)C(NC(=O)c1sc(Cl)c(Cl)c1C(F)F)C1CC1 (stereo not shown) [1.0417]

LogP [2]: 2.03^[a]
SMILES: O=C(N[C@H]1CNC1=O)c1sc(Cl)c(Cl)c1Br [I.0808]

LogP (method [a]): 4.89^[a]
SMILES: CCOC(=O)C(NC(=O)c1sc(Br)c(Cl)c1Cl)C(C)C (stereo not shown) [1.0200]

LogP [1]: 3.29^[a]
SMILES: CCOC(=O)C1(NC(=O)c2cc(Cl)c(Br)s2)CCC1 [1.0452]

LogP (method [a]): 2.21^[a]
SMILES: COC(=O)CNC(=O)c1sc(Cl)c(C#N)c1Br [1.0654]

LogP (method [a]): 4.97^[a]
SMILES: CCOC(=O)C(NC(=O)c1sc(Cl)c(Br)c1Cl)C(C)C (stereo not shown) [1.0183]

LogP (method [a]): 3.38^[a]
SMILES: CCOC(=O)C1(NC(=O)c2sc(C#N)c(Br)c2Cl)CCC1 [1.0566]

LogP (method marked [a]): 3.06^[a]
SMILES: CCOC(=O)C(CO)NC(=O)c1sc(Cl)c(Cl)c1Br (stereo not shown) [1.0780]

LogP [2]: 2.09^[a]
SMILES: O=C(NC1CCOC1=O)c1cc(Cl)c(Br)s1 (stereo not shown) [I.0220]

LogP (method [a]): 3.89^[a]
SMILES: COC(=O)C(NC(=O)c1sc(Cl)c(Br)c1Br)C1CC1 (stereo not shown) [1.0211]

LogP [3]: 2.86^[a]
SMILES: COC(=O)C1(NC(=O)c2sc(Cl)c(C)c2Cl)CC1 [1.0978]

LogP [2]: 1.68^[a]
SMILES: N#Cc1c(Cl)sc(C(=O)O)c1Br [II.098]

LogP [1]: 1.63^[a]
SMILES: O=C(O)CNC(=O)CNC(=O)c1cc(I)c(I)s1 [1.0474]

LogP [4]: 3.75^[a]
SMILES: CCOC(=O)C1(CNC(=O)c2sc(Br)c(Cl)c2C)CC1 [1.0040]

LogP [1]: 4.01^[a]
SMILES: CCOC(=O)C(Cc1ccccc1)NC(=O)c1cc(Cl)c(Br)s1 (stereo not shown) [1.0443]

LogP (method marked [a]): 2.37^[a]
SMILES: COC(=O)C1(NC(=O)c2sc(Br)c(C#N)c2Cl)CC1 [1.0692]

LogP (method [a]): 4.12^[a]
SMILES: CCOC(=O)C1(NC(=O)c2sc(Cl)c(Cl)c2I)CCC1 [1.0191]

LogP [1]: 2.80^[a]
SMILES: CCOC(=O)C1(NC(=O)c2cc(Cl)c(Br)s2)CC1 [1.0454]

LogP [3]: 3.81^[a]
SMILES: CCOC(=O)CN(C(=O)c1sc(Br)c(Br)c1Cl)C1CC1 [1.0935]

LogP (method marked [a]): 2.44^[a]
SMILES: O=C(NC(C(=O)O)C1CC1)c1cc(Br)c(Cl)s1 (stereo not shown) [1.0285]

LogP [1]: 3.85^[a]
SMILES: CCOC(=O)C(NC(=O)c1cc(Cl)c(Br)s1)C(C)C (stereo not shown) [1.0441]

LogP [4]: 4.58^[a]
SMILES: CCOC(=O)C(CC(C)C)NC(=O)c1sc(Cl)c(Br)c1C (stereo not shown) [1.0069]

LogP (method marked [a]): 2.33^[a]
SMILES: COC(=O)C1(NC(=O)c2sc(Cl)c(Cl)c2C#N)CC1 [1.0682]
